This is an account of results in ChEMBL document CHEMBL6114980, “Single or double lipid-modified ultra-short antimicrobial peptides for treating infections caused by resistant bacteria” (Eur J Med Chem, 2025).

Activity calls are given as the source filed them. The calls are words filed in the database; no cut-off is given here. Peptide text beside a SMILES is read from it. * marks the point of attachment. Lauroyl = CCCCCCCCCCCC(=O)*; Octanoyl = CCCCCCCC(=O)*

In data set [1] the test system is Staphylococcus aureus. Put plainly: Additive antibacterial activity against methicillin-resistant Staphylococcus aureus 113 assessed as fractional inhibitory in presence of polymyxin B by checker board assay. In kind it is functional.
In data set [2] the test system is Escherichia coli. Put plainly: Antibacterial activity against Escherichia coli assessed as reduction in survival bacterial growth in presence of NaCl measured after 18 to 24 hrs (reference value: 8 microM). Type of data set: functional. The note with it: time 18-24 hrs.
Data set [3] deals with Escherichia coli. Put plainly: Antibacterial activity against Escherichia coli 25922 at sub-MIC concentration measured after 15 passages in presence of rifampin. Type of data set: functional, organism-based.
Data set [4] deals with Escherichia coli. Nature of the data set: Antibacterial activity against Escherichia coli assessed as reduction in survival bacterial growth in presence of MgCl2 measured after 18 to 24 hrs (reference value: 8 microM). Type of data set: functional. Conditions: time 18-24 hrs.
Data set [5] can be described thus: Acute toxicity in male BALB/c mouse assessed effect on edema in heart at 100 to 130 mg/kg, ip measured after 7 days by H and E staining based analysis. The note with it: in vivo, 168 h, dose 100-130 mg/kg, time 7 day. Type of data set: organism-based.
Data set [6] is described as follows: Acute toxicity in male BALB/c mouse assessed distorted alveolar morphology at 100 to 130 mg/kg, ip measured after 7 days by H and E staining based analysis. In kind it is organism-based. The note with it: in vivo, 168 h, dose 100-130 mg/kg, time 7 day.
In data set [7] the test system is Escherichia coli. Put plainly: Antibacterial activity against Escherichia coli assessed as reduction in survival bacterial growth in presence <=0.2 ug/ml of trypsin measured after1 hr by absorbance based analysis. In kind it is functional, organism-based. Conditions: time 1.0 hrs.
In data set [8] the test system is Staphylococcus aureus. Nature of the data set: Antibacterial activity against Staphylococcus aureus assessed as reduction in survival bacterial growth in presence of <= 2 ug/ml trypsin measured after1 hr by absorbance based analysis. In kind it is functional, organism-based. The note with it: time 1.0 hrs.
The subject of data set [9] is Staphylococcus aureus. Nature of the data set: Synergistic antibacterial activity against methicillin-resistant Staphylococcus aureus assessed as fractional inhibitory in presence of streptomycin by checker board assay. Type of data set: functional.
The subject of data set [10] is Staphylococcus aureus. Put plainly: Antibacterial activity against Staphylococcus aureus 25923 at sub-MIC concentration measured after 15 passages in presence of rifampin. In kind it is functional, organism-based.
Data set [11] can be described thus: Acute toxicity in male BALB/c mouse assessed congestion at 100 to 130 mg/kg, ip measured after 7 days by H and E staining based analysis. Type of data set: organism-based. The note with it: in vivo, 168 h, dose 100-130 mg/kg, time 7 day.
Data set [12] has as its system Staphylococcus aureus. Nature of the data set: Antibacterial activity against Staphylococcus aureus assessed as reduction in survival bacterial growth in presence of ZnCl2 measured after 18 to 24 hrs (reference value: 4 microM). Type of data set: functional. Conditions: time 18-24 hrs.
A short description of data set [13]: Acute toxicity in male BALB/c mouse assessed increase in inflammatory cell infiltration at 100 to 130 mg/kg, ip measured after 7 days by H and E staining based analysis. Conditions: in vivo, 168 h, dose 100-130 mg/kg, time 7 day. In kind it is organism-based.
Data set [14] has as its system Staphylococcus aureus. Put plainly: Antibacterial activity against Staphylococcus aureus assessed as reduction in survival bacterial growth in presence of MgCl2 measured after 18 to 24 hrs (reference value: 4 microM). Conditions: time 18-24 hrs. Type of data set: functional.
Data set [15] concerns Staphylococcus aureus. Nature of the data set: Additive antibacterial activity against Staphylococcus aureus 25923 assessed as fractional inhibitory in presence of cephalothin by checker board assay. In kind it is functional.
For data set [16], the system named is Staphylococcus aureus. Put plainly: Antibacterial activity against Staphylococcus aureus assessed as reduction in survival bacterial growth in presence of KCl measured after 18 to 24 hrs (reference value: 4 microM). Conditions: time 18-24 hrs. In kind it is functional.
In data set [17] the test system is Cell membrane. Nature of the data set: Induction of outer membrane permeabilization in Escherichia coli assessed as increase in fluorescence intensity at 0.5 times MIC measured for 10 mins by fluorescence based NPN uptake assay.
For data set [18], the system named is Staphylococcus aureus. Put plainly: Induction of morphological changes in Staphylococcus aureus assessed as cell adhesion at 2 times MIC measured after 120 mins by SEM analysis. Type of data set: functional, organism-based.
In data set [19] the test system is Staphylococcus aureus. Put plainly: Antibacterial activity against Staphylococcus aureus assessed as reduction in survival bacterial growth in presence of NaCl measured after 18 to 24 hrs (reference value: 4 microM). In kind it is functional. The note with it: time 18-24 hrs.
Data set [20] can be described thus: Acute toxicity in male BALB/c mouse assessed increase in interstitial space at 100 to 130 mg/kg, ip measured after 7 days by H and E staining based analysis. In kind it is organism-based. The note with it: in vivo, 168 h, dose 100-130 mg/kg, time 7 day.
For data set [21], the system named is Staphylococcus aureus. Put plainly: Antibacterial activity against Staphylococcus aureus assessed as reduction in survival bacterial growth in presence of NaCl measured after 18 to 24 hrs (reference value: 8 microM). In kind it is functional. Conditions: time 18-24 hrs.
The test system of data set [22] is Cell membrane. Nature of the data set: Induction of outer membrane permeabilization in Escherichia coli assessed as increase in fluorescence intensity at 1 times MIC measured for 10 mins by fluorescence based NPN uptake assay.
The test system of data set [23] is Staphylococcus aureus. Nature of the data set: Antibacterial activity against Staphylococcus aureus assessed as reduction in survival bacterial growth in presence of <=0.2 ug/ml trypsin measured after1 hr by absorbance based analysis. In kind it is functional, organism-based. The note with it: time 1.0 hrs.
Data set [24] deals with Staphylococcus aureus. Nature of the data set: Synergistic antibacterial activity against Staphylococcus aureus 25923 assessed as fractional inhibitory in presence of cephalothin by checker board assay. In kind it is functional.
The subject of data set [25] is Staphylococcus aureus. Put plainly: Antibacterial activity against Staphylococcus aureus assessed as reduction in survival bacterial growth in presence of Mgcl2 measured after 18 to 24 hrs (reference value: 8 microM). Type of data set: functional. The note with it: time 18-24 hrs.
Data set [26] in a line: Acute toxicity in male BALB/c mouse assessed inflammatory cell infiltration in spleen at 100 to 130 mg/kg, ip measured after 7 days by H and E staining based analysis. In kind it is organism-based. Conditions: in vivo, 168 h, dose 100-130 mg/kg, time 7 day.
Data set [27] concerns Staphylococcus aureus. Put plainly: Synergistic antibacterial activity against methicillin-resistant Staphylococcus aureus 113 assessed as fractional inhibitory in presence of polymyxin B by checker board assay. Type of data set: functional.
Data set [28] is described as follows: Acute toxicity in male BALB/c mouse assessed inflammatory cell infiltration in liver at 100 to 130 mg/kg, ip measured after 7 days by H and E staining based analysis. The note with it: in vivo, 168 h, dose 100-130 mg/kg, time 7 day. In kind it is organism-based.
The nature of data set [29]: Acute toxicity in male BALB/c mouse assessed partial hepatocyte necrosis at 100 to 130 mg/kg, ip measured after 7 days by H and E staining based analysis. Type of data set: organism-based. The note with it: in vivo, 168 h, dose 100-130 mg/kg, time 7 day.
The test system of data set [30] is Staphylococcus aureus. Nature of the data set: Additive antibacterial activity against methicillin-resistant Staphylococcus aureus assessed as fractional inhibitory in presence of streptomycin by checker board assay. In kind it is functional.
Data set [31] concerns Staphylococcus aureus. Nature of the data set: Antibacterial activity against Staphylococcus aureus assessed as reduction in survival bacterial growth in presence of ZnCl2 measured after 18 to 24 hrs (reference value: 8 microM). Conditions: time 18-24 hrs. In kind it is functional.
The nature of data set [32]: Acute toxicity in male BALB/c mouse assessed inflammatory cell infiltration in kidney at 100 to 130 mg/kg, ip measured after 7 days by H and E staining based analysis. In kind it is organism-based. The note with it: in vivo, 168 h, dose 100-130 mg/kg, time 7 day.
The test system of data set [33] is Escherichia coli. Nature of the data set: Antibacterial activity against Escherichia coli assessed as reduction in survival bacterial growth in presence <=0.02 ug/ml of trypsin measured after1 hr by absorbance based analysis. Type of data set: functional, organism-based. Conditions: time 1.0 hrs.
The subject of data set [34] is Cell membrane. Nature of the data set: Induction of cytoplasmic membrane depolarization in Escherichia coli assessed as increase in fluorescence intensity at 0.5 to 2 times MIC measured for 10 mins by DiSC3-5 dye based fluorescence assay.

For the compound `CCCCCCCCCCCC(=O)N[C@@H](CCCCN)C(=O)N[C@@H](CCCCN)C(=O)N[C@@H](Cc1c[nH]c2ccccc12)C(=O)N[C@@H](Cc1c[nH]c2ccccc12)C(N)=O` (Lauroyl-KKWW-NH2), the entries for the “fractional inhibitory concentration index (FICI)” value with Staphylococcus aureus [1], in the data set on Staphylococcus aureus [9] and in the data set on Staphylococcus aureus [15] were 0.625, 0.375 and 0.562, respectively. In addition, the MIC (in general, the lowest concentration found to suppress growth) worked out at 8 µM in the data set on Escherichia coli [2]; 8 µM in the data set with Escherichia coli [4]; 4 µM in the data set on Staphylococcus aureus [12]; 4 µM with Staphylococcus aureus [14]; 4 µM with Staphylococcus aureus [16]; 4 µM with Staphylococcus aureus [19]. Also, the result in the data set on Escherichia coli [3], in the data set with Escherichia coli [7], in the data set on Staphylococcus aureus [8], in the data set on Staphylococcus aureus [10], in the data set on Cell membrane [17] and in the data set with Staphylococcus aureus [18] was Active. Besides, the Activity result in [5] is recorded as “Non-toxic”; in data set [6] it was “Toxic”; in [11], “Toxic”; in data set [13] it was “Toxic”; in [20], “Toxic”.
Turning to `CCCCCCCC(=O)NCCCC[C@H](NC(=O)CCCCCCC)C(=O)N[C@@H](CCCCN)C(=O)N[C@@H](CCCCN)C(=O)N[C@@H](Cc1c[nH]c2ccccc12)C(=O)N[C@@H](Cc1c[nH]c2ccccc12)C(N)=O` (Octanoyl-K(Octanoyl)KKWW-NH2), the MIC in the data set with Staphylococcus aureus [21], with Staphylococcus aureus [25] and in the data set with Staphylococcus aureus [31] was 8 µM each time. For the same compound, the outcome with Cell membrane [22], with Staphylococcus aureus [23] and in the data set on Escherichia coli [33] was Active. Further, the “fractional inhibitory concentration index (FICI)” value turned out to be 0.5 in the data set on Staphylococcus aureus [24], 0.312 in the data set on Staphylococcus aureus [27] and 0.562 in the data set with Staphylococcus aureus [30]. Besides, the Activity result in [26] was “Non-toxic”; in [28], “Non-toxic”; in data set [29] it was “Non-toxic”; in data set [32], “Non-toxic”; with Cell membrane [34] it was “Active; Compound Showed Similar Effect As Quality Control Polymyxin B”.
